Converted amounts (≈) assume the structure as drawn.
Assays:
Assay in all cases: MIC, agar dilution test/Isosensitest agar
Settings in all cases: unit assumed
[1] = system: Pseudomonas Ellsworth; assay type: cell-based
Source text: (§1) |(agar dilution test/Isosensitest agar)

[2] = system: Serratia 16040; assay type: cell-based
Source text: as §1

[3] = system: Staphylococcus FK 422; assay type: cell-based
Source text: as §1

[4] = system: Providencia 12012; assay type: cell-based
Source text: as §1

[5] = system: Proteus vulgaris 1017; assay type: cell-based
Source text: as §1

[6] = system: Klebsiella 8085; assay type: cell-based
Source text: as §1

[7] = system: Streptococcus 27101; assay type: cell-based
Source text: as §1

[8] = system: E. coli Neumann; assay type: cell-based, Escherichia coli
Source text: as §1

MIC [1]: 0.06 µg/mL (≈ 0.135 µM)
MIC [2]: 8 µg/mL (≈ 18 µM)
MIC [3]: 0.25 µg/mL (≈ 0.564 µM)
MIC [4]: 0.03 µg/mL (≈ 0.0677 µM)
MIC [5]: ≤ 0.015 µg/mL
MIC [6]: ≤ 0.015 µg/mL
MIC [7]: 0.5 µg/mL (≈ 1.13 µM)
MIC [8]: ≤ 0.015 µg/mL
Compound: Cc1oc(=O)oc1CN1CCN(c2cc3c(cc2F)c(=O)c(C(=O)O)cn3C2CC2)CC1 [Example 1, 1-Cyclopropyl-6-fluoro-1,4-dihydro-7-[4-(5-methyl-2-oxo-1,3-dioxol-4-yl-methyl)-1-piperazinyl]-4-oxo-3-quinolinecarboxylic acid]

— patent US4703047A, “1-Cyclopropyl-1,4-dihydro-4-oxo-7-(4-(2-oxo-1,3-dioxol-4-yl- methyl)-1-piperazinyl)-3-quinolinecarboxylic acid antibacterial agents” (Bayer Aktiengesellschaft, priority 1985, dated 1987)
